Assay results: ChEMBL document CHEMBL3046925, “,-Dibromoacetophenones mediated synthesis of some new 7H-7-alkoxy-3-alkyl/phenyl-6-aryl-s-triazolo[3,4-b][1,3,4]thiadiazines and their antimicrobial evaluation” (2012)
Values after ≈ are worked out from the molar mass of the structure shown. Active and inactive are the calls of the source. No cut-off for these calls is given here.

Assays:
Escherichia coli = test: Antimicrobial activity against Escherichia coli MTCC 1652 at 2 mg/ml after 24 hr by agar well diffusion method; type: functional, organism-based
Staphylococcus aureus [1] = conditions: MTCC 96
Description: Antimicrobial activity against Staphylococcus aureus MTCC 96 at 2 mg/ml after 24 hr by agar well diffusion method

Bacillus subtilis [2] = conditions: MTCC 121
Description: Antimicrobial activity against Bacillus subtilis MTCC 121 at 2 mg/ml after 24 hr by two-fold serial dilution method

Candida albicans [3] = test: Antimicrobial activity against Candida albicans MTCC 227 at 2 mg/ml by agar well diffusion method; type: functional; conditions: read-out: DIZ
Bacillus subtilis [4] = conditions: MTCC 121; remark: listed apart in the source
Description: Antimicrobial activity against Bacillus subtilis MTCC 121 at 2 mg/ml after 24 hr by agar well diffusion method

Saccharomyces cerevisiae [5] = test: Antimicrobial activity against Saccharomyces cerevisiae MTCC 170 after 24 hr by two-fold serial dilution method; type: functional; conditions: MTCC 170, 24 h
Saccharomyces cerevisiae [6] = test: Antimicrobial activity against Saccharomyces cerevisiae MTCC 170 at 2 mg/ml after 24 hr by agar well diffusion method; type: functional; conditions: MTCC 170, 24 h, read-out: DIZ
Candida albicans [7] = test: Antimicrobial activity against Candida albicans MTCC 227 at 2 mg/ml by two-fold serial dilution method; type: functional
Pseudomonas aeruginosa = test: Antimicrobial activity against Pseudomonas aeruginosa MTCC 741 at 2 mg/ml after 24 hr by agar well diffusion method; type: functional, organism-based
Staphylococcus aureus [8] = conditions: MTCC 96; remark: listed apart in the source
Description: Antimicrobial activity against Staphylococcus aureus MTCC 96 after 24 hr by two-fold serial dilution method

CCOC1Sc2nnc(CC)n2N=C1c1ccc(Cl)cc1 (stereo not given)
Activity (Escherichia coli): inactive
DIZ (Staphylococcus aureus [1]): inactive
MIC (Bacillus subtilis [2]): inactive
zone of inhibition at 2000 µg/mL (Candida albicans [3]): 15.6 mm
DIZ (Bacillus subtilis [4]): inactive
MIC (Saccharomyces cerevisiae [5]): 32 µg/mL (≈ 99.1 µM)
zone of inhibition at 2000 µg/mL (Saccharomyces cerevisiae [6]): 18.3 mm
MIC (Candida albicans [7]): 64 µg/mL (≈ 198 µM)
Activity (Pseudomonas aeruginosa): inactive
MIC (Staphylococcus aureus [8]): inactive
